{
  "source": "patent US20090142330A1",
  "about": "“Use of inactive-plasmin to treat chronic inflammatory disease and tumors” (The Government of the United States of America as …, priority 2007, published 2009)",
  "format_in_all_cases": "cell-based, human",
  "key": {"MMP-1 mRNA in monocytes": {"tested_on": "MMP-1 mRNA in monocytes", "experiment": "MMP-1 mRNA in monocytes, semiquantitative RT-PCR", "conditions": "FIG. 2C", "method": "Plasmin activity assay. Plasmin activity was determined with the SPECTROZYME PL kit (American Diagnostica Inc., Stamford, Conn.) which utilizes the chromogenic substrate H-D-norleucyl-hexahydrotyrosol-lysine-para-nitroanilide diacetate. For detection of cell-associated plasmin activity, monocytes were cultured at 1×10^6/well in Hanks Balanced Solution containing calcium and magnesium (Hyclone, Logan, Utah) with the plasmin substrate. Kinetic absorbance readings were measured at 405 nm. RT-PCR. Total cellular RNA was extracted with the RNeasy Mini Kit (QIAGEN® Inc., Valencia, Calif.) 8 hours after stimulation of monocytes with LPS. Transcript levels of MMP-1 were determined using semiquantitative reverse transcriptase-polymerase chain reaction (RT-PCR) with GADPH as an internal control. […] The amplified DNA was separated by 1.7% agarose gel electrophoresis, stained with SYTO 60 red fluorescent nucleic acid stain (Molecular Probes®, Eugene, Oreg.), and the intensity of the stained bands was analyzed with an infrared imaging system. […] FITC-conjugated BSA, plasmin (2.5 μg in 10 μl) or anti-human antibodies (1-2.5 μg/10 μl) then were added, respectively, incubated for 30 min and washed and analyzed by the FACSCalibur system (Becton Dickinson Biosciences, Franklin Lakes, N.J.). […] Flow cytometry results were analyzed by CELLQuest software (Becton Dickinson Biosciences, Franklin Lakes, N.J.). […]"}, "cyclooxygenase-2 (COX-2)": {"tested_on": "cyclooxygenase-2 (COX-2)", "experiment": "COX-2 protein in monocyte membranes, Western blot", "conditions": "LPS 25 ng/ml; HMW-uPA 30 nM or plasmin 360 nM; FIG. 4A", "method": "Cell protein isolation for the determination of COX-2 protein levels were prepared as previously described (Zhang et al., J. Clin. Invest. 99: 894-900, 1997). Briefly, 20×10^6 monocytes in 4 ml of DMEM were cultured in suspension in 17 ml polypropylene tubes overnight in the presence or absence of reagents. The cells were then washed in phosphate buffered saline with protease inhibitors. The cell pellets were resuspended in 250 mM sucrose containing protease inhibitors and sonicated (Ultrasonic Cell Disrupter, Kontes, American Instrument Exchange, Inc., Haverhill, Mass.). Nuclear debris and unbroken cells were pelleted at 100×g and the supernatant microfuged at 1,500×g to pellet cell membrane proteins. Equal amounts of protein were loaded onto 12% Tris Glycine gels. […] Equal loading of samples was measured with mouse anti-β-actin antibodies.\n(§1) Western blots for MMP-1, MAPKs and COX-2 were incubated overnight with primary antibodies, washed and analyzed by the addition of Alexa Fluor 680 goat anti-rabbit or Alexa Fluor 750 goat anti-mouse antibodies (Molecular Probes® Inc., Eugene, Oreg.) and the infrared fluorescence detected with the Odyssey infrared imaging system (LI-COR, Lincoln, Nebr.). Densitometry analysis of the bands on the Western blots was determined with the LI-COR software analysis program or the ImageQuant software analysis program (Amersham Biosciences, Piscataway, N.J.)."}, "PGE2": {"tested_on": "PGE2", "experiment": "PGE2 in monocyte culture supernatants, ELISA", "conditions": "LPS-stimulated monocytes, 24 hours; FIG. 4B", "method": "FIGS. 4A-4C illustrate that stimulation of MMP-1 by HMW-uPA and plasmin is mediated in part by PGE2. FIG. 4A is a digital image depicting cyclooxygenase-2 (COX-2) protein levels detected in monocyte cultures determined by Western blot analysis in the presence of HMW-uPA (30 nM) or plasmin (360 nM) in the absence or presence of LPS (25 ng/ml). β-actin protein levels were detected to serve as an indicator for equal sample loading. FIG. 4B is a bar graph illustrating media levels of PGE2 measured by ELISA at 24 hours. FIG. 4C is a digital image illustrating MMP-1 protein levels detected by Western blot analysis in monocyte cultures following incubation with indomethacin for 30 minutes prior to the addition of LPS, HMW-uPA, plasmin or PGE2 (1 μM)."}, "p38 MAPK": {"tested_on": "p38 MAPK", "experiment": "Phosphorylation of p38 MAPK in monocytes, Western blot", "conditions": "LPS-stimulated monocytes, 1 hour; FIG. 5B", "method": "(§2) For detection of the levels of activated ERK1/2 and p38 MAPKs monocytes were cultured in DMEM at 5×10^6/ml in suspension. Ten to 60 minutes after the addition of reagents, the cells were pelleted and lysed with SDS loading buffer (prepared as described above). The supernatants were loaded onto 12% Tris-glycine gels. The blots were then incubated overnight with mouse anti-human antibodies against the phosphorylated forms of ERK1/2 and p38 and with rabbit anti-human antibodies against total ERK1/2 and p38 as a measure of equal loading of the gels.\nas §1"}, "ERK1/2": {"tested_on": "ERK1/2", "experiment": "Phosphorylation of ERK1/2 in monocytes, Western blot", "conditions": "LPS-stimulated monocytes, 1 hour; FIG. 5B", "method": "as §2, §1"}},
  "data": [
    {"substance": "plasmin", "values": [
      {"measurement": "MMP-1 mRNA level", "setting": "MMP-1 mRNA in monocytes; LPS-stimulated monocytes, 8 hours", "value": "dose-dependent increase"},
      {"measurement": "induction of MMP-1 mRNA", "setting": "MMP-1 mRNA in monocytes; control (unstimulated) monocytes", "value": "did not induce MMP-1"},
      {"measurement": "LPS-induced COX-2 protein level", "setting": "cyclooxygenase-2 (COX-2)", "value": "increased"},
      {"measurement": "PGE2 levels in monocyte culture supernatants", "setting": "PGE2", "value": "increased PGE2 levels"},
      {"measurement": "phosphorylation of p38", "setting": "p38 MAPK", "value": "induced increases"},
      {"measurement": "phosphorylation of ERK1/2", "setting": "ERK1/2", "value": "induced increases"}
    ]}
  ]
}
